Values joined by “and” are separate entries in the source; they are usually repeats but may differ in a detail not shown here. Equal entries are not always repeated.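 These data come from cells grown in 96-well plates and exposed to compound for 48 hours at five concentrations. At the GI50, growth is halved. TGI marks complete inhibition of growth.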 Residues, ends and D or L forms follow the SMILES beside them. *: point of attachment. Cbz = O=C(OCc1ccccc1)*
Test system: MDA-MB-468 breast
Assay: NCI anticancer screen, dose series, 48 h

| SMILES | GI50 | TGI |
| --- | --- | --- |
| O=S(=O)(NCCCNc1cc(-c2cn(-c3ccccc3)nc2-c2cccc(O)c2)ccn1)c1ccc(Br)cc1 | 1.54 µM | 5.61 µM |
| COC(=O)CNc1nc(N(C)O)nc(N(C)O)n1 | 2.16 µM | 17.4 µM |
| O=[N+]([O-])c1ccc2c(c1)C(c1ccccc1Cl)=Nc1c(n[nH]c1-c1cccnc1)N2 | > 25 µM | > 25 µM |
| COc1cc(C2CC(=O)Nc3c2c(C)nn3-c2nc3ccccc3[nH]2)cc(OC)c1O (centres undefined) | 2.37 µM | 7.09 µM |
| C=CCOC(=O)Nc1cccn([C@H](CC(C)C)C(=O)NCCC(C)C)c1=O | 42.4 µM | > 100 µM |
| CCCN(CCC)c1ccc(C=O)c(C)c1 | 1.98 µM | 32.5 µM |
| C=CC(=O)N1CC[C@H](n2nc(C#Cc3cc(OC)cc(OC)c3)c3c(N)ncnc32)C1 | 3.33 µM | 78.5 µM |
| Cc1cccc(Cl)c1NC(=O)c1cnc(Nc2cc(N3CCOCC3)cc(S(C)(=O)=O)c2)s1 | 1.47 µM | 8.03 µM |
| Cc1ccc(OCCOCCOCCOCCOCCOc2ccc(C)n(O)c2=S)c(=S)n1O | 0.0368 µM | 0.412 µM |
| COC(=O)[C@@H](C)C[C@H](Cc1ccccc1)NC(=O)c1csc([C@@H](C[C@H](C(C)C)N(C)C(=O)[C@@H](NC(=O)[C@H]2CCCN2C)C2CC2)OC(C)=O)n1 | 0.000328 µM and 0.0025 µM | > 25 µM |
| CC1Cc2ccccc2N1C(=O)Cc1nc(N2CCOCC2)cc(=O)[nH]1 (centres undefined) | 2.06 µM and 5.78 µM | 17.1 µM and 47.5 µM |
| CN(C)CCOc1ccccc1NC1=C(Cl)C(=O)C(Nc2ccccc2OCCN(C)C)=C(Cl)C1=O | 0.579 µM | 1.17 µM |
| Cn1c(=O)c(Oc2ccc(F)cc2F)cc2cnc(NC3CCOCC3)nc21 | > 25 µM | > 25 µM |
| COc1cc2nc3cc([N+](=O)[O-])ccc3c(NCCNCC(C)O)c2cc1OC (centres undefined) | 0.203 µM | 0.542 µM |
| NC(=O)n1c(=O)n(-c2cccc(C(F)(F)F)c2)c(=O)c2cc(-c3ccc(F)cc3F)ccc21 | 1.84 µM | 5.83 µM |
| N#CC1=C(N)Oc2c(sc3c(Br)cccc23)C1c1ccc(Cl)cc1 (centres undefined) | 0.521 µM | 3.2 µM |
| CN(C)Cc1c(C(=O)NCCOc2ccc(C(=O)NO)cc2)oc2ccccc12 | 0.152 µM | 2.36 µM |
| CCNCCNc1cc(-c2ccc(C(F)(F)F)cc2)c(C#N)c2nc3cc(Cl)c(Cl)cc3n12 | 1.83 µM | 3.39 µM |
| CNC(=O)c1cccc(C#Cc2cncnc2Nc2ccc(OCc3cccc(F)c3)c(Cl)c2)c1 | 0.616 µM | 4.05 µM |
| CC(C)Cc1ccc(C(C)C(=O)NCc2ccc(Cn3c(=O)sn(CCCI)c3=O)cc2)cc1 (centres undefined) | 0.423 µM | 1.62 µM |
| CN(C)CCS(=O)(=O)Nc1cc(-c2ccc3ncc(C#N)c(Nc4ccc(F)c(Cl)c4)c3c2)cnc1Cl | 0.0583 µM | 0.233 µM |
| Cc1ccsc1-c1ccc2c(c1)COC2(CCCN(C)C)c1ccc(F)cc1 (centres undefined) | 1.58 µM | 3.06 µM |
| Cc1ccccc1C(C(=O)NC1CCCCC1)N(C(=O)CNc1ccc(C#N)cc1)c1cccc(F)c1 (centres undefined) | 25.7 µM | > 100 µM |
| C[C@H]1CCC/C=C/[C@@H]2C[C@H](O)C[C@H]2[C@H](O)/C=C/C(=O)O1 | 0.0312 µM | 0.268 µM |
| C=C1CC2C3C=C(C)C4=CC(=O)CC[C@]4(C)C3CC[C@]2(C)[C@@]1(OC(C)=O)C(C)=O (some centres undefined) | 3.23 µM | > 100 µM |
| Cc1ccccc1C(C(=O)NC1CCCCC1)N(C(=O)CNc1ncccc1F)c1cccc(F)c1 (centres undefined) | > 65.6 µM | > 100 µM |

| SMILES | GI50 | TGI |
| --- | --- | --- |
| NC(=O)c1cc(Br)ccc1NC(=O)/C=C/c1ccccc1 | 0.837 µM | 4.32 µM |
| O=C1NC(=NCCc2ccccn2)S/C1=C\c1ccc2ncccc2c1 | 5.77 µM | > 25 µM |
| CCCCCCCCCCCCCCCCN(CC)CC | 2.21 µM | 4.55 µM |
| Nc1ncn([C@H]2C[C@H](OP(=O)(O)OC[C@H]3O[C@@H](n4cnc5c(=O)[nH]c(N)nc54)C[C@@H]3O)[C@@H](CO)O2)c(=O)n1 | 0.154 µM | 67.9 µM |
| NC(N)=Nc1ccc(/C=C2\C=Cc3ccccc32)cc1 | 0.148 µM | 0.969 µM |
| Cc1[nH]c(C(=O)Nc2ccccc2OCc2cccc(C(=O)NC3CCNC3)c2)c(Cl)c1Cl (centres undefined) | 1.89 µM | 3.6 µM |
| NCCSC(c1ccccc1)(c1ccccc1)c1ccccc1 | 0.357 µM | 1.63 µM |
| O=C(O)c1cn(C2CC2)c2cc(N3CCN(Cc4c(O)ccc5ccccc45)CC3)c(F)cc2c1=O | 15.2 µM | > 100 µM |
| COc1ccc(Cn2cc3c(c2-c2cc(OC)c(OC)c(OC)c2)CCc2c(CO)noc2-3)cc1 | 0.307 µM | 18.9 µM |
| CC(C)C[C@@H](C=O)NC(=O)[C@H](CC(C)C)NC(=O)[C@H](CC(C)C)NC(=O)OCc1ccccc1 (Cbz-Leu-Leu-Leu-aldehyde) | 0.249 µM | 0.663 µM |
| Cc1[nH]nc2ncc(C(=O)N3CCC[C@H]3c3ccc(Cl)cc3)cc12 | 33.3 µM | > 100 µM |
| CN(C)C=Nc1c(I)cc(I)c(CCC(=O)O)c1I | > 100 µM | > 100 µM |
| COc1ccc2c(c1)C(c1cc(OC)c3c(c1)OCO3)C1=C(COC1=O)N2 (centres undefined) | 0.205 µM | 0.849 µM |
| C=CC(=O)Nc1cccc(Oc2nc(Nc3ccc(N4CCN(C)CC4)cc3OC)ncc2Cl)c1 | 0.113 µM | 0.518 µM |
| CC/C=C\C[C@H](O)C/C=C1/C(=O)C=C[C@@H]1C/C=C\CCCCO | 1.97 µM | 4.65 µM |
| O=C1CC(N2C(=O)/C(=C/C(Cl)=C\c3ccc([N+](=O)[O-])cc3)SC2=S)C(=O)N1c1ccc(O)cc1 (centres undefined) | 1.87 µM | 5.7 µM |
| O=c1oc2ccc(Br)cc2c(=O)n1-c1ccc(Cl)cc1F | 1.38 µM | 5.19 µM |
| Cc1sc2c(c1C)C(c1ccc(Cl)cc1)=N[C@@H](CC(=O)NCCCN1CCN(C)CC1)c1nnc(C)n1-2 | 0.197 µM | > 100 µM |
| CN1CCN(Cc2ccc(NC(=O)c3cncc(C#Cc4cnc5ccc(OC6CCOCC6)nn45)c3)cc2C(F)(F)F)CC1 | 0.105 µM | 0.278 µM |
| Cn1cc(C2=C(c3cn(CCCCCO)c4ccccc34)C(=O)NC2=O)c2ccccc21 | 3.47 µM | 14.1 µM |
| Oc1ccccc1/C=N\NC(=S)N/N=C/c1ccccc1O | 2.24 µM | 30.5 µM |
| CC(=O)N[C@@H](Cc1ccc(OP(=O)(O)O)cc1)C(=O)N[C@H]1CCC(=O)N2CCC[C@@H](C(=O)NCc3ccccc3)N2C1=O | > 25 µM | > 25 µM |
| O=C1c2c(Cl)c(Cl)c(Cl)c(Cl)c2C(=O)C2(Cl)CC=CCC12Cl (centres undefined) | 1.21 µM | 2.88 µM |
| C=C1C(=O)O[C@H]2[C@H]1CC/C(CNC(=O)/C=C/c1ccccc1F)=C\CC[C@@]1(C)O[C@@H]21 | 0.493 µM | 1.96 µM |
| COc1cc(/C=C/C(=O)c2c(-c3ccc(F)cc3)nc3sc(C)nn23)cc(OC)c1OC | 1.92 µM | 7.74 µM |
| COc1ccc(-c2[nH]nc(N)c2-c2cc(OC)c(OC)c(OC)c2)cc1 | 0.0368 µM | 6.23 µM |

— PubChem BioAssay (NCI)
